Results reported in patent publication US12083125B2, “Drug-induced epigenetic remodeling to prevent fibrosis” (Thomas Jefferson University, priority 2016, dated 2024).
“Also recorded” adds a separate entry of the source. Read-outs that look alike come from different tables or passages of the source.

Legend:
FHL124 human lens cells = experiment: TGFβ-stimulated human lens cells, western blot for FN-EDA and Collagen I; format: cell-based; conditions: FHL124 cells stimulated with TGFβ, FIG. 11
Description: We also performed similar studies with human lens cell culture. FHL124 human lens cells, a non-transformed spontaneously generated human lens cell line from embryonic explants, were stimulated with Transforming Growth Factor β (TGFβ), a potent inducer of the fibrotic response, in the absence or presence of the UTX inhibitor GSKJ4. Western blotting was performed with antibodies to extracellular matrix molecules associated with fibrosis, including Fibronectin EDA (FN-EDA), a splice form of FN and Collagen I. FN EDA expression is tightly linked to myofibroblast differentiation and Collagen I is a defining feature of fibrosis/scarring. GAPDH was used as a loading control for WB analysis.

[1] = evaluation of GSKJ1, GSKJ2, GSKJ4, GSKJ5: efficacy / in vitro studies; conditions: for efficacy / activity: ethyl esters of GSKJ1 and GSKJ2; for potency in in vitro studies: over a control, data not shown
Text: (§1) To further review compounds in this class, we evaluated […]4, and GSKJ5. Based on our data, and review of the molecule, the highly polar carboxylate group of GSKJ1 and GSKJ2 restricts cellular permeability. […] Accordingly, for purposes of treating disease and disorders here, the most preferred active pharmaceutical compound is GSK-J4.

[2] = evaluation of GSKJ1, GSKJ2, GSKJ4, GSKJ5: cellular permeability / bioavailability; format: in vitro ADME
Text: as §1

[3] = test system: cells from the ex vivo mock cataract surgery explants; experiment: ex vivo mock cataract surgery explants: myofibroblast emergence, αSMA and Fn-EDA expression; format: cell-based, chick
Text: For example, in a PCO model, using an ex vivo lens mock cataract surgery model in chick embryos that recapitulates features of PCO, we investigated the cell reprogramming events involved in regulating changes in epigenetic markings of chromatin, which result in alterations of chromatin structure and impact gene transcriptional programs to control the emergence of myofibroblasts.
We tested this epigenetic targeting strategy using a clinically relevant ex vivo chick mock cataract surgery model that recapitulates the major features of the lens fibrotic disease, PCO, as well as a human lens cells (SRA01/04). Human SRA01/04 lens cells are studied extensively for the acquisition of a mesenchymal phenotype resulting from an Epithelial Mesenchymal Transition (EMT) after exposure to TGFβ associated with the development of lens fibrosis.
(§2) FIG. 2A illustrates how the ex vivo mock cataract surgery explants are created. Ex vivo mock cataract surgery explants provide a powerful model in which to study wound healing as well as the development of fibrotic disease. Briefly, to create this model, the fiber cell mass is hydroeluted from the lens leaving behind lens epithelial cells that remain adherent to the lens capsule. The resultant ex vivo explant when placed in culture is star shaped, with the adherent cells located in the points of the star. In response to the injury induced by the surgery, mesenchymal cells involved in repair move to the wound edges.
As shown in FIG. 2B wound healing across the denuded basement membrane is typically completed by day 3. Lens epithelial cells led by a leader cell population, which expresses the surface receptor CD44+ [42], move collectively to repopulate the denuded area of the wounded lens capsule (where the differentiated lens fiber cells were removed). FIG. 2C depicts the wound area over a three-day period. In FIGS. 3A and B CD44+ leader cell population that has migrated to the outside wound edge of the explants (FIG. 3A, left panel, right arrow) directs the collective migration of lens epithelial cells onto the rigid tissue culture substrate, a region we refer to as the extracapsular zone (ECZ). […] Therefore, within one model system we can assess epigenetic targeting strategies for preventing fibrosis and determine how these approaches will affect normal wound healing. This ex vivo model was used to investigate the epigenetic mechanisms (detailed below) involved in regulating cell reprogramming to a myofibroblast phenotype associated with lens fibrotic disease.
Next, we tested if manipulating histone de-methylase activity could change chromatin structure to block pro-fibrotic transcription factors from binding to DNA and the acquisition to a myofibroblast phenotype associated with fibrosis. […] Thus, treatment with GSKJ4 prevents αSMA expression in the ex vivo mock cataract surgery model.
Cells from the ex vivo mock cataract surgery explants were treated with vehicle or GSKJ4 for 24 hr. ECZ regions were treated 1 day after injury and inhibitor was washed away after 24 hour of treatment. We chose to add the inhibitor on day 1, during the time of open chromatin, the perfect timing to prevent cell reprogramming to a fibrotic phenotype. […]
(§3) Cells from the ex vivo mock cataract surgery explant were treated for 24 hour as indicated above with vehicle or GSK-J4. […] In FIG. 13B we determined the effect of GSKJ4 short-term treatment on wound healing. […]

[4] = testing of GSK-J4 concentration range (efficacy and toxicity)
Description: For example, when administering GSK-J4 to a patient, an appropriate therapeutic range comprises: about 1 μM to 10 μM concentration for a liquid, topical vehicle. Suitable doses can be generated based upon the tissue to be treated and area to be treated. […] The LD50 is otherwise known to those of skill in the art based upon the molecule of interest. The GSK-J4 can be formulated with suitable excipients and into a suitable vehicle for delivery to a human patient.

[5] = test system: ex vivo mock cataract surgery explants; experiment: wound healing (open wound area) in ex vivo mock cataract surgery explants; format: cell-based, chick
Text: as §2
As shown in FIG. 2B wound healing across the denuded basement membrane is typically completed by day 3. […]
We also determined whether GSKJ4 treatment affected wound healing. […] Open wound area (μm^2) was measured on Day 0 (D0) through Day 3 (D3) in the presence of vehicle control (DMSO) or GSKJ4. Open wound area was measured for each ex vivo capsule D0-D3 and presented in the graph+/− SEM. […]
as §3

SMILES: CCOC(=O)CCNc1cc(N2CCc3ccccc3CC2)nc(-c2ccccn2)n1 [GSK-J4]
- TGFβ induced expression of Collagen I (FHL124 human lens cells): blocked
- TGFβ induced expression of FN EDA (FHL124 human lens cells): blocked
- efficacy / activity [1]: greater efficacy
- bioavailability ([2]; ethyl ester masking the acid group): increased
- myofibroblast emergence, short-term treatment ([3]; 24 hour treatment, FIGS. 14A and B): effective to block
- αSMA expression ([3]; cells from ex vivo mock cataract surgery explants, FIG. 10A, B): prevents
- emergence of myofibroblasts ([3]; ex vivo mock cataract surgery model, FIG. 10A): effectively suppressed
- Fn-EDA expression, short-term treatment ([3]; treated 24 hr from day 1 after injury, washed away, lysates day 3, western blot): significantly inhibited
- αSMA expression, short-term treatment ([3]; treated 24 hr from day 1 after injury, washed away, lysates day 3, western blot (αSMA to GAPDH)): significantly inhibited; also recorded: effectively blocked
- efficacy by concentration ([4]; 10 μM versus 1 μM): higher efficacy at 10 μM than the 1 μM
- toxicity ([4]; 100 μM): began to show signs of toxicity
- wound healing (open wound area) ([5]; Day 0 through Day 3 in presence of GSKJ4 vs DMSO, FIG. 12): somewhat slowed but did not prevent
- wound healing (open wound area), short-term treatment ([5]; treated at time of injury, day 0, for 24 hour, followed day 0 through day 4): does not affect

SMILES: O=C(O)CCNc1cc(N2CCc3ccccc3CC2)nc(-c2ccccn2)n1 [GSKJ1]
- potency in in vitro studies [1]: potent over a control
- cellular permeability [2]: restricts

SMILES: O=C(O)CCNc1cc(N2CCc3ccccc3CC2)nc(-c2cccnc2)n1 [GSKJ2]
- potency in in vitro studies [1]: potent over a control
- cellular permeability ([2]; highly polar carboxylate group): restricts

SMILES: CCOC(=O)CCNc1cc(N2CCc3ccccc3CC2)nc(-c2cccnc2)n1 [GSKJ5]
- efficacy / activity [1]: inactive
